ChEMBL document CHEMBL3046627, “Synthesis and in vitro study of antibacterial, antifungal activities of some novel bisquinolines” (2013)
Converted amounts (≈) assume the structure as drawn. The source made the active and inactive calls. The rule behind the calls is not given here.

Experiments:
Escherichia coli [1] = experiment: Antibacterial activity against Escherichia coli 319 assessed as growth inhibition after 24 hr by agar dilution method; format: functional; details: Escherichia coli, 319, 24 h
Candida tropicalis [2] = experiment: Antifungal activity against Candida tropicalis assessed as growth inhibition at MIC after 96 hr by agar dilution method; format: functional
Bacillus pumilus [3] = experiment: Antibacterial activity against Bacillus pumilus 11778 assessed as growth inhibition at MIC after 24 hr by agar dilution method; format: functional
Micrococcus luteus [4] = experiment: Antibacterial activity against Micrococcus luteus ATCC 9341 assessed as growth inhibition at MIC after 24 hr by agar dilution method; format: functional
Candida tropicalis [5] = experiment: Antifungal activity against Candida tropicalis assessed as growth inhibition after 96 hr by agar dilution method; format: functional
Klebsiella pneumoniae [6] = experiment: Antibacterial activity against Klebsiella pneumoniae J/I/4 assessed as growth inhibition after 24 hr by agar dilution method; format: functional; details: J/I/4, 24 h
Cryptococcus neoformans [7] = experiment: Antifungal activity against Cryptococcus neoformans assessed as growth inhibition after 96 hr by agar dilution method; format: functional
Shigella dysenteriae [8] = experiment: Antibacterial activity against Shigella dysenteriae 15 assessed as growth inhibition at MIC after 24 hr by agar dilution method; format: functional
Bacillus pumilus [9] = experiment: Antibacterial activity against Bacillus pumilus 11778 assessed as growth inhibition after 24 hr by agar dilution method; format: functional; details: Bacillus pumilus, 11778, 24 h
Escherichia coli [10] = experiment: Antibacterial activity against Escherichia coli 319 assessed as growth inhibition at MIC after 24 hr by agar dilution method; format: functional
Shigella dysenteriae [11] = experiment: Antibacterial activity against Shigella dysenteriae 15 assessed as growth inhibition after 24 hr by agar dilution method; format: functional; details: Shigella dysenteriae, 15, 24 h
Aspergillus niger [12] = experiment: Antifungal activity against Aspergillus niger assessed as growth inhibition after 96 hr by agar dilution method; format: functional
Vibrio cholerae [13] = experiment: Antibacterial activity against Vibrio cholerae 759 assessed as growth inhibition after 24 hr by agar dilution method; format: functional; details: Vibrio cholerae, 759, 24 h
Klebsiella pneumoniae [14] = experiment: Antibacterial activity against Klebsiella pneumoniae J/I/4 assessed as growth inhibition at MIC after 24 hr by agar dilution method; format: functional
Vibrio cholerae [15] = experiment: Antibacterial activity against Vibrio cholerae 759 assessed as growth inhibition at MIC after 24 hr by agar dilution method; format: functional
Pseudomonas aeruginosa [16] = experiment: Antibacterial activity against Pseudomonas aeruginosa 71 assessed as growth inhibition at MIC after 24 hr by agar dilution method; format: functional
Pseudomonas aeruginosa [17] = experiment: Antibacterial activity against Pseudomonas aeruginosa 71 assessed as growth inhibition after 24 hr by agar dilution method; format: functional; details: Pseudomonas aeruginosa, 71, 24 h
Staphylococcus aureus [18] = experiment: Antibacterial activity against Staphylococcus aureus 29737 assessed as growth inhibition after 24 hr by agar dilution method; format: functional; details: Staphylococcus aureus, 29737, 24 h
Staphylococcus aureus [19] = experiment: Antibacterial activity against Staphylococcus aureus 29737 assessed as growth inhibition at MIC after 24 hr by agar dilution method; format: functional
Candida albicans [20] = experiment: Antifungal activity against Candida albicans assessed as growth inhibition at MIC after 96 hr by agar dilution method; format: functional
Escherichia coli [21] = experiment: Antibacterial activity against Escherichia coli 319 assessed as growth inhibition at MIC; format: functional, organism-based; details: TDE = time-dependent effect
Cryptococcus neoformans [22] = experiment: Antifungal activity against Cryptococcus neoformans assessed as growth inhibition at MIC after 96 hr by agar dilution method; format: functional
Micrococcus luteus [23] = experiment: Antibacterial activity against Micrococcus luteus ATCC 9341 assessed as growth inhibition after 24 hr by agar dilution method; format: functional; details: ATCC 9341, 24 h
Aspergillus niger [24] = experiment: Antifungal activity against Aspergillus niger assessed as growth inhibition at MIC after 96 hr by agar dilution method; format: functional
Candida albicans [25] = experiment: Antifungal activity against Candida albicans assessed as growth inhibition after 96 hr by agar dilution method; format: functional

Clc1ccc(OCc2ccccc2COc2ccc(Cl)c3cccnc23)c2ncccc12
MIC (Escherichia coli [1]): 32 µg/mL (≈ 69.4 µM)
diameter of the inhibition zone (DIZ) (Candida tropicalis [2]): 9 mm
diameter of the inhibition zone (DIZ) (Bacillus pumilus [3]): 6 mm
diameter of the inhibition zone (DIZ) (Micrococcus luteus [4]): 6.5 mm
MIC (Candida tropicalis [5]): 1000 µg/mL (≈ 2170 µM)
MIC (Klebsiella pneumoniae [6]): > 500 µg/mL
MIC (Cryptococcus neoformans [7]): inactive
diameter of the inhibition zone (DIZ) (Shigella dysenteriae [8]): 6 mm
MIC (Bacillus pumilus [9]): 32 µg/mL (≈ 69.4 µM)
diameter of the inhibition zone (DIZ) (Escherichia coli [10]): 6.5 mm
MIC (Shigella dysenteriae [11]): 64 µg/mL (≈ 139 µM)
MIC (Aspergillus niger [12]): 1000 µg/mL (≈ 2170 µM)
MIC (Vibrio cholerae [13]): 32 µg/mL (≈ 69.4 µM)
diameter of the inhibition zone (DIZ) (Klebsiella pneumoniae [14]): inactive
diameter of the inhibition zone (DIZ) (Vibrio cholerae [15]): 7 mm
diameter of the inhibition zone (DIZ) (Pseudomonas aeruginosa [16]): 7.5 mm
MIC (Pseudomonas aeruginosa [17]): 64 µg/mL (≈ 139 µM)
MIC (Staphylococcus aureus [18]): 128 µg/mL (≈ 277 µM)
diameter of the inhibition zone (DIZ) (Staphylococcus aureus [19]): 7 mm
diameter of the inhibition zone (DIZ) (Candida albicans [20]): 7 mm
growth inhibition (GI) (Escherichia coli [21]): tde
diameter of the inhibition zone (DIZ) (Cryptococcus neoformans [22]): inactive
MIC (Micrococcus luteus [23]): 32 µg/mL (≈ 69.4 µM)
diameter of the inhibition zone (DIZ) (Aspergillus niger [24]): 7.5 mm
MIC (Candida albicans [25]): 1500 µg/mL (≈ 3250 µM)
